Each structure is given as a SMILES string. pIC50: −log10 of the molar value.

The target of this test is T1, recombinant JAK2 (JAK2 JH1 domain) (Homo sapiens, UniProt O60674).
T1 construct: 50 nM JAK2 JH1 domain (Upstate); purchased Upstate
T1 sequence (O60674 849-1124 limits assumed): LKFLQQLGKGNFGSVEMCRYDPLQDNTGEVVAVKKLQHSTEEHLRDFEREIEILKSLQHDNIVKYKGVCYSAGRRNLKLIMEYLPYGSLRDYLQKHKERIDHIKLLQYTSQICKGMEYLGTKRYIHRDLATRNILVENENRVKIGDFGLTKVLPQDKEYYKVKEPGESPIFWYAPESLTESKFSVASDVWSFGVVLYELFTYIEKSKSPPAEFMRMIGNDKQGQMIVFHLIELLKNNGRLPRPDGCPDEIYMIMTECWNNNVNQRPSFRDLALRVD
Briefly: JAK2 Kinase Activity Inhibition Assay and Determination of IC50 (HTRF). The test is classed as biochemical. The settings on record: HTRF kinase assay, 15 μM MgATP, 50 nM JAK2 JH1 domain. How it is done:
JAK2 Kinase Activity Inhibition Assay and Determination of IC50
The kinase activity was measured using a modified version of the homogeneous time-resolved tyrosine kinase assay described in Park et al. Anal. Biochem. 269, 94-104 (1999).
IC50 was obtained by fitting the observed relationship between compound/inhibitor concentration and HTRF signal with a 4-parameter logistic equation.
Compounds of the instant invention are potent inhibitors of recombinant purified JAK2 kinase activity with an IC50 of approximately 8 nM-1 μM.
In general terms: TR-FRET usually uses a lanthanide donor and a delayed reading to cut background.
As usually defined, the pIC50 is the IC50 on a negative log10 scale, so that one unit is a factor of ten. Turning to `CS(=O)(=O)c1ccc(Nc2nn(-c3ccccc3)cc2C(N)=O)cc1` [Example 1, 3-{[4-(methylsulfonyl)phenyl]amino}-1-phenyl-1H-pyrazole-4-carboxamide], the pIC50 was 6.77.

As for `CC(C)(C)c1ccc(-n2cc(C(N)=O)c(Nc3ccc(S(C)(=O)=O)cc3)n2)cc1` [Example 17, 1-(4-tert-butylphenyl)-3-{[4-(methylsulfonyl)phenyl]amino}-1H-pyrazole-4-carboxamide], the pIC50 is 8.09.

On to `CC(O)c1ccc(-n2cc(C(N)=O)c(Nc3ccc(S(C)(=O)=O)cc3)n2)cc1` (stereo not drawn) [Example 18, 1-[4-(1-hydroxyethyl)phenyl]-3-{[4-(methylsulfonyl)phenyl]amino}-1H-pyrazole-4-carboxamide], for which the negative logarithm of the IC50 (pIC50) was 7.70.

On to `CN(C)Cc1ccc(Nc2nn(-c3ccccc3)cc2C(N)=O)cc1` [Example 13, 3-({4-[(dimethylamino)methyl]phenyl}amino)-1-phenyl-1H-pyrazole-4-carboxamide], for which the pIC50 was 7.44.

For `CN(C)S(=O)(=O)c1ccc(Nc2nn(-c3ccccc3)cc2C(N)=O)cc1` [Example 6, 3-({4-[(dimethylamino)sulfonyl]phenyl}amino)-1-phenyl-1H-pyrazole-4-carboxamide], the pIC50 was 7.38.

On to `CC(C)(O)c1ccc(Nc2nn(-c3ccccc3)cc2C(N)=O)cc1` [Example 14, 3-{[4-(1-hydroxy-1-methylethyl)phenyl]amino}-1-phenyl-1H-pyrazole-4-carboxamide], for which the pIC50 was 7.09.

As to `NC(=O)c1cn(-c2ccccc2)nc1Nc1ccnc(CO)c1` [Example 3, 3-{[2-(hydroxymethyl)pyridin-4-yl]amino}-1-phenyl-1H-pyrazole-4-carboxamide], the pIC50 is 6.07.

With `NC(=O)c1cn(-c2ccccc2)nc1Nc1ccc(C(=O)N2CCOCC2)cc1` [Example 4, 3-{[4-(morpholin-4-ylcarbonyl)phenyl]amino}-1-phenyl-1H-pyrazole-4-carboxamide], the pIC50 is 7.03.

As to `NC(=O)c1cn(-c2ccccc2)nc1Nc1ccc(CN2CCOCC2)cc1` [Example 11, 3-{[4-(morpholin-4-ylmethyl)phenyl]amino}-1-phenyl-1H-pyrazole-4-carboxamide], the negative-log IC50 (pIC50) is 7.31.

For the compound `NC(=O)c1cn(-c2ccccc2)nc1Nc1ccccc1` [Example 8, 3-anilino-1-phenyl-1H-pyrazole-4-carboxamide], the negative logarithm of the IC50 (pIC50) is 6.32.

Take `CS(=O)(=O)c1ccc(Nc2nn(-c3ccc(S(C)(=O)=O)cc3)cc2C(N)=O)cc1` [Example 16, 1-[4-(methylsulfonyl)phenyl]-3-{[4-(methylsulfonyl)phenyl]amino}-1H-pyrazole-4-carboxamide]: the pIC50 was 7.32.

Take `CNC(=O)c1ccc(Nc2nn(-c3ccccc3)cc2C(N)=O)cc1` [Example 2, 3-({4-[(methylamino)carbonyl]phenyl}amino)-1-phenyl-1H-pyrazole-4-carboxamide]: the negative logarithm of the IC50 (pIC50) was 6.80.

Consider `CN(C)C(=O)c1ccc(Nc2nn(-c3ccccc3)cc2C(N)=O)cc1` [Example 7, 3-({4-[(dimethylamino)carbonyl]phenyl}amino)-1-phenyl-1H-pyrazole-4-carboxamide], for which the pIC50 is 7.25.

`CS(=O)(=O)c1ccc(Nc2nn(-c3ccc(Cl)cc3)cc2C(N)=O)cc1` [Example 15, 1-(4-chlorophenyl)-3-{[4-(methylsulfonyl)phenyl]amino}-1H-pyrazole-4-carboxamide]: the pIC50 is 6.54.

Regarding `NC(=O)c1cn(-c2ccccc2)nc1Nc1ccc(CN2CCS(=O)(=O)CC2)cc1` [Example 12, 3-({4-[(1,1-dioxidothiomorpholin-4-yl)methyl]phenyl}amino)-1-phenyl-1H-pyrazole-4-carboxamide], the pIC50 was 7.44.

On to `NC(=O)c1cn(-c2ccccc2)nc1Nc1ccc(S(=O)(=O)N2CCOCC2)cc1` [Example 5, 3-{[4-(morpholin-4-ylsulfonyl)phenyl]amino}-1-phenyl-1H-pyrazole-4-carboxamide], for which the pIC50 was 7.20.

Take `CN1CCN(C(=O)c2ccc(Nc3nn(-c4ccccc4)cc3C(N)=O)cc2)CC1` [Example 9, 3-({4-[(4-methylpiperazin-1-yl)carbonyl]phenyl}amino)-1-phenyl-1H-pyrazole-4-carboxamide]: the pIC50 is 7.42.

On to `NC(=O)c1cn(-c2ccccc2)nc1Nc1ccc(C(=O)N2CCS(=O)(=O)CC2)cc1` [Example 10, 3-({4-[(1,1-dioxidothiomorpholin-4-yl)carbonyl]phenyl}amino)-1-phenyl-1H-pyrazole-4-carboxamide], for which the negative logarithm of the IC50 (pIC50) is 7.89.

The record behind these values is patent publication US8415346B2, “Inhibitors of Janus kinases” (Merck Sharp & Dohme Corp., priority 2008, dated 2013).
